According to ChEMBL document CHEMBL2413072, “Synthesis and in vitro anticancer studies of novel C-2 arylidene congeners of lantadenes” (2013):

What was measured:
Type in all cases: functional
SK-MEL-5 = experiment: Growth inhibition of human SK-MEL-5 cells assessed as cell growth at 10^-7 M by sulforhodamine B assay; conditions: read-out: Activity
NCI-H460 [1] = experiment: Growth inhibition of human NCI-H460 cells assessed as cell growth at 10^-6 M by sulforhodamine B assay; conditions: read-out: Activity
HOP-92 = experiment: Growth inhibition of human HOP92 cells assessed as cell growth at 10^-8 M by sulforhodamine B assay; conditions: read-out: Activity
UO-31 = experiment: Growth inhibition of human UO31 cells assessed as cell growth at 10^-7 M by sulforhodamine B assay; conditions: read-out: Activity
CCRF-CEM [2] = experiment: Growth inhibition of human CCRF-CEM cells assessed as cell growth at 10^-7 M by sulforhodamine B assay; conditions: read-out: Activity
A549 = experiment: Growth inhibition of human A549/ATCC cells assessed as cell growth at 10^-6 M by sulforhodamine B assay; conditions: read-out: Activity
MDA-MB-231 = experiment: Growth inhibition of human MDA-MB-231 cells assessed as cell growth at 10^-7 M by sulforhodamine B assay; conditions: read-out: Activity
SNB-75 [3] = experiment: Growth inhibition of human SNB75 cells by sulforhodamine B assay
M14 [4] = experiment: Growth inhibition of human M14 cells assessed as cell growth at 10^-4 M by sulforhodamine B assay; conditions: read-out: Activity
LOX IMVI = experiment: Growth inhibition of human LOXIMVI cells by sulforhodamine B assay
786-0 = experiment: Growth inhibition of human 786-0 cells assessed as cell growth at 10^-7 M by sulforhodamine B assay; conditions: read-out: Activity
T47D = experiment: Growth inhibition of human T47D cells assessed as cell growth at 10^-6 M by sulforhodamine B assay; conditions: read-out: Activity
COLO 205 [5] = experiment: Growth inhibition of human COLO205 cells by sulforhodamine B assay
MDA-MB-435 = experiment: Growth inhibition of human MDA-MB-435 cells by sulforhodamine B assay
OVCAR-8 = experiment: Growth inhibition of human OVCAR8 cells assessed as cell growth at 10^-7 M by sulforhodamine B assay; conditions: read-out: Activity
UACC-62 = experiment: Growth inhibition of human UACC62 cells assessed as cell growth at 10^-8 M by sulforhodamine B assay; conditions: read-out: Activity
NCI-H460 [6] = experiment: Growth inhibition of human NCI-H460 cells assessed as cell growth at 10^-8 M by sulforhodamine B assay; conditions: read-out: Activity
UACC-257 = experiment: Growth inhibition of human UACC257 cells assessed as cell growth at 10^-8 M by sulforhodamine B assay; conditions: read-out: Activity
U-251 = experiment: Growth inhibition of human U251 cells assessed as cell growth at 10^-4 M by sulforhodamine B assay; conditions: read-out: Activity
SK-MEL-2 = experiment: Growth inhibition of human SK-MEL-2 cells assessed as cell growth at 10^-7 M by sulforhodamine B assay; conditions: read-out: Activity
HOP-62 = experiment: Growth inhibition of human HOP62 cells assessed as cell growth at 10^-8 M by sulforhodamine B assay; conditions: read-out: Activity
MCF7 = experiment: Growth inhibition of human MCF7 cells assessed as cell growth at 10^-7 M by sulforhodamine B assay; conditions: read-out: Activity
M14 [7] = experiment: Growth inhibition of human M14 cells assessed as cell growth at 10^-7 M by sulforhodamine B assay; conditions: read-out: Activity
COLO 205 [8] = experiment: Growth inhibition of human COLO205 cells assessed as cell growth at 10^-7 M by sulforhodamine B assay; conditions: read-out: Activity
CCRF-CEM [9] = experiment: Growth inhibition of human CCRF-CEM cells assessed as cell growth at 10^-4 M by sulforhodamine B assay; conditions: read-out: Activity
CAKI-1 = experiment: Growth inhibition of human CAKI-1 cells assessed as cell growth at 10^-4 M by sulforhodamine B assay; conditions: read-out: Activity
ACHN = experiment: Growth inhibition of human ACHN cells by sulforhodamine B assay
NCI-H522 = experiment: Growth inhibition of human NCI-H522 cells assessed as cell growth at 10^-7 M by sulforhodamine B assay; conditions: read-out: Activity
OVCAR-5 [10] = experiment: Growth inhibition of human OVCAR5 cells assessed as cell growth at 10^-6 M by sulforhodamine B assay; conditions: read-out: Activity
SNB-19 = experiment: Growth inhibition of human SNB19 cells assessed as cell growth at 10^-7 M by sulforhodamine B assay; conditions: read-out: Activity
SF-539 = experiment: Growth inhibition of human SF539 cells by sulforhodamine B assay
SNB-75 [11] = experiment: Growth inhibition of human SNB75 cells assessed as cell growth at 10^-8 M by sulforhodamine B assay; conditions: read-out: Activity
SNB-75 [12] = experiment: Growth inhibition of human SNB75 cells assessed as cell growth at 10^-7 M by sulforhodamine B assay; conditions: read-out: Activity
Malme-3M = experiment: Growth inhibition of human MALME-3M cells by sulforhodamine B assay
M14 [13] = experiment: Growth inhibition of human M14 cells assessed as cell growth at 10^-6 M by sulforhodamine B assay; conditions: read-out: Activity
RPMI-8226 = experiment: Growth inhibition of human RPMI8226 cells assessed as cell growth at 10^-6 M by sulforhodamine B assay; conditions: read-out: Activity
SN12C = experiment: Growth inhibition of human SN12C cells assessed as cell growth at 10^-8 M by sulforhodamine B assay; conditions: read-out: Activity
HL-60(TB) = experiment: Growth inhibition of human HL-60(TB) cells assessed as cell growth at 10^-7 M by sulforhodamine B assay; conditions: read-out: Activity
OVCAR-5 [14] = experiment: Growth inhibition of human OVCAR5 cells assessed as cell growth at 10^-4 M by sulforhodamine B assay; conditions: read-out: Activity
PC-3 = experiment: Growth inhibition of human PC3 cells assessed as cell growth at 10^-8 M by sulforhodamine B assay; conditions: read-out: Activity
TK-10 = experiment: Growth inhibition of human TK10 cells assessed as cell growth at 10^-6 M by sulforhodamine B assay; conditions: read-out: Activity
[15] = read-out: LC50 (the source's name)
[16] = read-out: pLC50 (the source's name) (converted)

CC(C)=CC(=O)O[C@@H]1CC(C)(C)C[C@H]2C3=CC[C@@H]4[C@@]5(C)CC[C@H](O)C(C)(C)[C@@H]5CC[C@@]4(C)[C@]3(C)CC[C@@]12C(=O)O [Reduced Lantadene B]
growth at 0.1 µM (SK-MEL-5): 91% | growth at 1 µM (NCI-H460 [1]): 78% | growth at 0.01 µM (HOP-92): 91% | growth at 0.1 µM (UO-31): 95% | growth at 0.1 µM (CCRF-CEM [2]): 102% | growth at 1 µM (A549): 34% | growth at 0.1 µM (MDA-MB-231): 97% | GI50 (SNB-75 [3]; read-out: GI50): 12.7 µM | CC50 (SNB-75 [3]; [15]): > 100 µM | TGI (SNB-75 [3]; read-out: TGI): 41.2 µM | GI50 (SNB-75 [3]; read-out: pGI50 (converted)): 12.9 µM | CC50 (SNB-75 [3]; [16]): > 100 µM | TGI (SNB-75 [3]; read-out: pTGI (converted)): 40.7 µM | growth at 100 µM (M14 [4]): -69% | GI50 (LOX IMVI; read-out: GI50): 9.09 µM | CC50 (LOX IMVI; [15]): > 100 µM | TGI (LOX IMVI; read-out: TGI): 38.2 µM | GI50 (LOX IMVI; read-out: pGI50 (converted)): 9.12 µM | CC50 (LOX IMVI; [16]): > 100 µM | TGI (LOX IMVI; read-out: pTGI (converted)): 38 µM | growth at 0.1 µM (786-0): 96% | growth at 1 µM (T47D): 96% | GI50 (COLO 205 [5]; read-out: GI50): 3.66 µM | LC50 (COLO 205 [5]; read-out: LC50): 93.6 µM | TGI (COLO 205 [5]; read-out: TGI): 14.3 µM | GI50 (COLO 205 [5]; read-out: pGI50 (converted)): 3.63 µM | LC50 (COLO 205 [5]; read-out: pLC50 (converted)): 93.3 µM | TGI (COLO 205 [5]; read-out: pTGI (converted)): 14.5 µM | GI50 (MDA-MB-435; read-out: GI50): 11.9 µM | CC50 (MDA-MB-435; [15]): > 100 µM | TGI (MDA-MB-435; read-out: TGI): 48.4 µM | GI50 (MDA-MB-435; read-out: pGI50 (converted)): 12 µM | CC50 (MDA-MB-435; [16]): > 100 µM | TGI (MDA-MB-435; read-out: pTGI (converted)): 47.9 µM | growth at 0.1 µM (OVCAR-8): 101% | growth at 0.01 µM (UACC-62): 94% | growth at 0.01 µM (NCI-H460 [6]): 105% | growth at 0.01 µM (UACC-257): 96% | growth at 100 µM (U-251): -61% | growth at 0.1 µM (SK-MEL-2): 95% | growth at 0.01 µM (HOP-62): 85% | growth at 0.1 µM (MCF7): 98% | growth at 0.1 µM (M14 [7]): 90% | growth at 0.1 µM (COLO 205 [8]): 97% | growth at 100 µM (CCRF-CEM [9]): -16% | growth at 100 µM (CAKI-1): -9% | GI50 (ACHN; read-out: GI50): 2.93 µM | CC50 (ACHN; [15]): 58.5 µM | TGI (ACHN; read-out: TGI): 20.4 µM | GI50 (ACHN; read-out: pGI50 (converted)): 2.95 µM | CC50 (ACHN; [16]): 58.9 µM | TGI (ACHN; read-out: pTGI (converted)): 20.4 µM | growth at 0.1 µM (NCI-H522): 102% | growth at 1 µM (OVCAR-5 [10]): 106% | growth at 0.1 µM (SNB-19): 86% | GI50 (SF-539; read-out: GI50): 8.94 µM | CC50 (SF-539; [15]): > 100 µM | TGI (SF-539; read-out: TGI): 36.2 µM | GI50 (SF-539; read-out: pGI50 (converted)): 8.91 µM | CC50 (SF-539; [16]): > 100 µM | TGI (SF-539; read-out: pTGI (converted)): 36.3 µM | growth at 0.01 µM (SNB-75 [11]): 85% | growth at 0.1 µM (SNB-75 [12]): 89% | GI50 (Malme-3M; read-out: GI50): 13.7 µM | CC50 (Malme-3M; [15]): > 100 µM | TGI (Malme-3M; read-out: TGI): 38.6 µM | GI50 (Malme-3M; read-out: pGI50 (converted)): 13.8 µM | CC50 (Malme-3M; [16]): > 100 µM | TGI (Malme-3M; read-out: pTGI (converted)): 38.9 µM | growth at 1 µM (M14 [13]): 89% | growth at 1 µM (RPMI-8226): 65% | growth at 0.01 µM (SN12C): 101% | growth at 0.1 µM (HL-60(TB)): 105% | growth at 100 µM (OVCAR-5 [14]): -51% | growth at 0.01 µM (PC-3): 97% | growth at 1 µM (TK-10): 86%
